Laboratory results published in patent US20240000872A1, “NOVEL BACTERIOPHAGE THAT LYSES ACINETOBACTER GENUS BACTERIA HAVING RESISTANCE TO ANTIBIOTICS” (priority 2020, published 2024).

System: Acinetobacter baumannii strains
Experiment: Antibiotic susceptibility test (CLSI disk diffusion test method, read per CLSI 2016)
Assay type: cell-based
Description: Strain identification was performed using a kit such as AT 32 GN system (bioMérieux, Marcy l'Etoile, France). […] In Table 2 below, S, I, and R are the results obtained by evaluating susceptibility to the antibacterial agents, in which ‘S’ means susceptible, ‘I’ means intermediate, and ‘R’ means resistant.
Strain identification was performed using a kit such as ATB 32 GN system (bioMédrieux, Marcy l'Etoile, France). […] In Table 6 below, S, I, and R are the results obtained by evaluating susceptibility to the antibacterial agents, in which ‘S’ means susceptible, ‘I’ means intermediate, and ‘R’ means resistant.
Strain identification was performed using a kit such as ATB 32 GN system (bioMérieux, Marcy l'Etoile, France). […] In Table 10 below, S, I, and R are the results obtained by evaluating susceptibility to the antibacterial agents, in which ‘S’ means susceptible, T means intermediate, and ‘R’ means resistant.

SMILES: C[C@H]1COc2c(N3CCN(C)CC3)c(F)cc3c(=O)c(C(=O)O)cn1c23 [Levofloxacin, levofloxacin]
- antibiotic susceptibility class (host strain YMC14/01/C29): R
- antibiotic susceptibility class (host strain YMC14/01/IP122): I
- antibiotic susceptibility class (host strain YMC14/01/L8): R
- antibiotic susceptibility class (host strain YMC14/01/P31): R
- antibiotic susceptibility class (host strain YMC14/01/P117): I
- antibiotic susceptibility class (host strain YMC14/01/P224): R
- antibiotic susceptibility class (host strain YMC14/01/P727): R
- antibiotic susceptibility class (host strain YMC14/01/P728): R
- antibiotic susceptibility class (host strain YMC14/01/R130): R
- antibiotic susceptibility class (host strain YMC14/01/R160): R
- antibiotic susceptibility class (host strain YMC14/01/R198): R
- antibiotic susceptibility class (host strain YMC14/01/R257): R
- antibiotic susceptibility class (host strain YMC14/01/R270): R
- antibiotic susceptibility class (host strain YMC14/01/R324): R
- antibiotic susceptibility class (host strain YMC14/01/R443): R
- antibiotic susceptibility class (host strain YMC14/01/R451): R
- antibiotic susceptibility class (host strain YMC14/01/R560): R
- antibiotic susceptibility class (host strain YMC14/01/R617): R
- antibiotic susceptibility class (host strain YMC14/01/R671): R
- antibiotic susceptibility class (host strain YMC14/01/R732): R
- antibiotic susceptibility class (host strain YMC14/01/R767): R
- antibiotic susceptibility class (host strain YMC14/01/R904): R
- antibiotic susceptibility class (host strain YMC14/01/R905): R
- antibiotic susceptibility class (host strain YMC14/01/R921): R
- antibiotic susceptibility class (host strain YMC14/01/R941): R
- antibiotic susceptibility class (host strain YMC14/01/R958): R
- antibiotic susceptibility class (host strain YMC14/01/R1006): R
- antibiotic susceptibility class (host strain YMC14/01/R1199): R
- antibiotic susceptibility class (host strain YMC14/01/R1659): R
- antibiotic susceptibility class (host strain YMC14/01/R1722): R
- antibiotic susceptibility class (host strain YMC14/01/R1752): R
- antibiotic susceptibility class (host strain YMC14/01/R2429): R
- antibiotic susceptibility class (host strain YMC14/01/R2572): R
- antibiotic susceptibility class (host strain YMC14/01/R2855): R
- antibiotic susceptibility class (host strain YMC14/01/R2945): R
- antibiotic susceptibility class (host strain YMC14/01/R3007): R
- antibiotic susceptibility class (host strain YMC14/01/R3129): R
- antibiotic susceptibility class (host strain YMC14/01/R3317): R
- antibiotic susceptibility class (host strain YMC14/01/R3474): I
- antibiotic susceptibility class (host strain YMC14/01/R3574): R
- antibiotic susceptibility class (host strain YMC14/01/U313): R
- antibiotic susceptibility class (host strain YMC14/01/U318): R
- antibiotic susceptibility class (host strain YMC14/02/L18): R
- antibiotic susceptibility class (host strain YMC14/02/P47): R
- antibiotic susceptibility class (host strain YMC14/02/R1860): R
- antibiotic susceptibility class (host strain YMC14/02/R2417): R
- antibiotic susceptibility class (host strain YMC14/02/R2599): R
- antibiotic susceptibility class (host strain YMC14/02/R2668): R
- antibiotic susceptibility class (host strain YMC14/02/R2758): R
- antibiotic susceptibility class (host strain YMC14/02/R2781): R
- antibiotic susceptibility class (host strain YMC14/02/R3106): R
- antibiotic susceptibility class (host strain YMC14/02/R3419): R
- antibiotic susceptibility class (host strain YMC14/02/U1607): R
- antibiotic susceptibility class (host strain YMC14/03/L9): R
- antibiotic susceptibility class (host strain YMC14/03/P471): R
- antibiotic susceptibility class (host strain YMC14/03/R122): R
- antibiotic susceptibility class (host strain YMC14/03/R217): R
- antibiotic susceptibility class (host strain YMC14/03/R380): R
- antibiotic susceptibility class (host strain YMC14/03/R618): R
- antibiotic susceptibility class (host strain YMC14/03/R2144): R
- antibiotic susceptibility class (host strain YMC14/03/U4616): R
- antibiotic susceptibility class (host strain YMC14/04/R1078): R
- antibiotic susceptibility class (host strain YMC14/04/R1080): R
- antibiotic susceptibility S/I/R (host strain YMC14/06/R2359): R
- susceptibility category (S/I/R) (host strain YMC14/06/R2359): R
- antibiotic susceptibility S/I/R (host strain YMC14/08/R1169): R
- susceptibility category (S/I/R) (host strain YMC14/08/R1169): R
- antibiotic susceptibility S/I/R (host strain YMC14/08/T90): R
- susceptibility category (S/I/R) (host strain YMC14/08/T90): R
- antibiotic susceptibility S/I/R (host strain YMC15/02/R436): R
- susceptibility category (S/I/R) (host strain YMC15/02/R436): R
- antibiotic susceptibility S/I/R (host strain YMC15/02/T28): R
- susceptibility category (S/I/R) (host strain YMC15/02/T28): R
- antibiotic susceptibility S/I/R (host strain YMC15/03/R1604): R
- susceptibility category (S/I/R) (host strain YMC15/03/R1604): R
- antibiotic susceptibility S/I/R (host strain YMC15/09/R1869): R
- susceptibility category (S/I/R) (host strain YMC15/09/R1869): R
- antibiotic susceptibility S/I/R (host strain YMC16/01/P11): R
- susceptibility category (S/I/R) (host strain YMC16/01/P11): R
- antibiotic susceptibility S/I/R (host strain YMC16/01/R123): R
- susceptibility category (S/I/R) (host strain YMC16/01/R123): R
- antibiotic susceptibility S/I/R (host strain YMC16/01/R198): R
- susceptibility category (S/I/R) (host strain YMC16/01/R198): R
- antibiotic susceptibility S/I/R (host strain YMC16/01/R353): R
- susceptibility category (S/I/R) (host strain YMC16/01/R353): R
- antibiotic susceptibility S/I/R (host strain YMC16/01/R380): R
- susceptibility category (S/I/R) (host strain YMC16/01/R380): R
- antibiotic susceptibility S/I/R (host strain YMC16/01/R397): R
- susceptibility category (S/I/R) (host strain YMC16/01/R397): R
- antibiotic susceptibility S/I/R (host strain YMC16/01/R405): R
- susceptibility category (S/I/R) (host strain YMC16/01/R405): R
- antibiotic susceptibility S/I/R (host strain YMC16/03/R4461): R
- susceptibility category (S/I/R) (host strain YMC16/03/R4461): R
- antibiotic susceptibility S/I/R (host strain YMC16/05/R2210): R
- susceptibility category (S/I/R) (host strain YMC16/05/R2210): R
- antibiotic susceptibility S/I/R (host strain YMC16/07/R2512): R
- susceptibility category (S/I/R) (host strain YMC16/07/R2512): R
- antibiotic susceptibility S/I/R (host strain YMC16/09/R2471): R
- susceptibility category (S/I/R) (host strain YMC16/09/R2471): R
- antibiotic susceptibility S/I/R (host strain YMC16/10/R2537): R
- susceptibility category (S/I/R) (host strain YMC16/10/R2537): R
- antibiotic susceptibility S/I/R (host strain YMC16/12/B11422): R
- susceptibility category (S/I/R) (host strain YMC16/12/B11422): R
- antibiotic susceptibility S/I/R (host strain YMC16/12/B11449): R
- susceptibility category (S/I/R) (host strain YMC16/12/B11449): R
- antibiotic susceptibility S/I/R (host strain YMC16/12/B13325): R
- susceptibility category (S/I/R) (host strain YMC16/12/B13325): R
- antibiotic susceptibility S/I/R (host strain YMC16/12/P503): R
- susceptibility category (S/I/R) (host strain YMC16/12/P503): R
- antibiotic susceptibility S/I/R (host strain YMC16/12/R4637): R
- susceptibility category (S/I/R) (host strain YMC16/12/R4637): R
- antibiotic susceptibility S/I/R (host strain YMC17/01/B8053): R
- susceptibility category (S/I/R) (host strain YMC17/01/B8053): R
- antibiotic susceptibility S/I/R (host strain YMC17/01/B10087): R
- susceptibility category (S/I/R) (host strain YMC17/01/B10087): R
- antibiotic susceptibility S/I/R (host strain YMC17/01/B12075): R
- susceptibility category (S/I/R) (host strain YMC17/01/B12075): R
- antibiotic susceptibility S/I/R (host strain YMC17/01/B13454): R
- susceptibility category (S/I/R) (host strain YMC17/01/B13454): R
- antibiotic susceptibility S/I/R (host strain YMC17/01/P518): R
- susceptibility category (S/I/R) (host strain YMC17/01/P518): R
- antibiotic susceptibility S/I/R (host strain YMC17/01/R2812): R
- susceptibility category (S/I/R) (host strain YMC17/01/R2812): R
- antibiotic susceptibility S/I/R (host strain YMC17/02/B14): R
- susceptibility category (S/I/R) (host strain YMC17/02/B14): R
- antibiotic susceptibility S/I/R (host strain YMC17/02/B87): R
- susceptibility category (S/I/R) (host strain YMC17/02/B87): R
- antibiotic susceptibility S/I/R (host strain YMC17/02/B721): R
- susceptibility category (S/I/R) (host strain YMC17/02/B721): R
- antibiotic susceptibility S/I/R (host strain YMC17/02/B4039): R
- susceptibility category (S/I/R) (host strain YMC17/02/B4039): R
- antibiotic susceptibility S/I/R (host strain YMC17/02/B4520): R
- susceptibility category (S/I/R) (host strain YMC17/02/B4520): R
- antibiotic susceptibility S/I/R (host strain YMC17/02/B4864): S
- susceptibility category (S/I/R) (host strain YMC17/02/B4864): S
- antibiotic susceptibility S/I/R (host strain YMC17/02/B8414): R
- susceptibility category (S/I/R) (host strain YMC17/02/B8414): R
- antibiotic susceptibility S/I/R (host strain YMC17/02/P523): R
- susceptibility category (S/I/R) (host strain YMC17/02/P523): R
- antibiotic susceptibility S/I/R (host strain YMC17/02/R541): R
- susceptibility category (S/I/R) (host strain YMC17/02/R541): R
- antibiotic susceptibility S/I/R (host strain YMC17/02/R2392): R
- susceptibility category (S/I/R) (host strain YMC17/02/R2392): R
- antibiotic susceptibility S/I/R (host strain YMC17/03/B4730): R
- susceptibility category (S/I/R) (host strain YMC17/03/B4730): R
- antibiotic susceptibility S/I/R (host strain YMC17/03/B5000): R
- susceptibility category (S/I/R) (host strain YMC17/03/B5000): R
- antibiotic susceptibility S/I/R (host strain YMC17/03/P971): R
- susceptibility category (S/I/R) (host strain YMC17/03/P971): R
- antibiotic susceptibility S/I/R (host strain YMC17/03/R348): R
- susceptibility category (S/I/R) (host strain YMC17/03/R348): R
- antibiotic susceptibility S/I/R (host strain YMC17/03/R585): R
- susceptibility category (S/I/R) (host strain YMC17/03/R585): R
- antibiotic susceptibility S/I/R (host strain YMC17/03/R1888): R
- susceptibility category (S/I/R) (host strain YMC17/03/R1888): R
- antibiotic susceptibility S/I/R (host strain YMC17/03/R3279): R
- susceptibility category (S/I/R) (host strain YMC17/03/R3279): R
- antibiotic susceptibility S/I/R (host strain YMC17/03/R4077): R
- susceptibility category (S/I/R) (host strain YMC17/03/R4077): R
- antibiotic susceptibility S/I/R (host strain YMC17/03/R4607): R
- susceptibility category (S/I/R) (host strain YMC17/03/R4607): R
- antibiotic susceptibility S/I/R (host strain YMC17/04/R488): R
- susceptibility category (S/I/R) (host strain YMC17/04/R488): R
- antibiotic susceptibility S/I/R (host strain YMC17/04/R640): R
- susceptibility category (S/I/R) (host strain YMC17/04/R640): R
- antibiotic susceptibility S/I/R (host strain YMC/17/05/R1095): R
- susceptibility category (S/I/R) (host strain YMC/17/05/R1095): R
